Test results as given in ChEMBL document CHEMBL1201862, “PubChem BioAssay data set” (2004).
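1) Cells in 96-well plates. 2) Compound, 48 h, 5 concentrations. 3) Linear interpolation between surrounding doses. 4) Unreached endpoint = highest concentration. Here, GI50 denotes the concentration required for 50% inhibition of growth.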 Calls of active or inactive are those of the source. No stated cut-off is given here; in the data, active = GI50 up to about 1.1 µM and inactive = higher.

What was measured:
Test in all cases: NCI-60 cell line screen, 48 h
[1] = tested on: 786-0
[2] = tested on: A498
[3] = tested on: A549
[4] = tested on: ACHN
[5] = tested on: CAKI-1
[6] = tested on: CCRF-CEM
[7] = tested on: COLO 205
[8] = tested on: DLD-1
[9] = tested on: DMS-114
[10] = tested on: EKVX
[11] = tested on: HCC 2998
[12] = tested on: HCT-116
[13] = tested on: HL-60
[14] = tested on: HOP-62
[15] = tested on: HOP-92
[16] = tested on: HT-29
[17] = tested on: IGROV-1
[18] = tested on: K562
[19] = tested on: KM-20L2
[20] = tested on: KM12
[21] = tested on: LOX IMVI
[22] = tested on: LXFL 529
[23] = tested on: M14
[24] = tested on: M19-MEL
[25] = tested on: MOLT-4
[26] = tested on: Malme-3M
[27] = tested on: NCI-H226
[28] = tested on: NCI-H23
[29] = tested on: NCI-H460
[30] = tested on: NCI-H522
[31] = tested on: OVCAR-3
[32] = tested on: OVCAR-4
[33] = tested on: OVCAR-5
[34] = tested on: OVCAR-8
[35] = tested on: RPMI-8226
[36] = tested on: RXF 393
[37] = tested on: SF-268
[38] = tested on: SF-295
[39] = tested on: SF-539
[40] = tested on: SK-MEL-28
[41] = tested on: SK-MEL-2
[42] = tested on: SK-MEL-5
[43] = tested on: SK-OV-3
[44] = tested on: SN12C
[45] = tested on: SNB-19
[46] = tested on: SNB-75
[47] = tested on: SNB-78
[48] = tested on: SW-620
[49] = tested on: TK-10
[50] = tested on: U-251
[51] = tested on: UACC-257
[52] = tested on: UO-31
[53] = tested on: XF498
[54] = tested on: DMS-273
[55] = tested on: HCT-15
[56] = tested on: HOP-18
[57] = tested on: SR
[58] = tested on: UACC-62

COc1ccccc1NC(=O)C1=C(C)NC(C)=C(C(=O)Nc2ccccc2OC)C1c1ccc(N(C)C)cc1
GI50 [1]: 33.8 µM (inactive) | GI50 [2]: 32.8 µM (inactive) | GI50 [3]: 42.6 µM (inactive) | GI50 [4]: 33 µM (inactive) | GI50 [5]: 23.2 µM (inactive) | GI50 [6]: 19.3 µM (inactive) | GI50 [7]: 31 µM (inactive) | GI50 [8]: 17.9 µM (inactive) | GI50 [9]: 21.8 µM (inactive) | GI50 [10]: 27.4 µM (inactive) | GI50 [11]: 14.5 µM (inactive) | GI50 [12]: 25.4 µM (inactive) | GI50 [13]: 15.8 µM (inactive) | GI50 [14]: 22.3 µM (inactive) | GI50 [15]: 6.52 µM (inactive) | GI50 [16]: 45.4 µM (inactive) | GI50 [17]: 33.4 µM (inactive) | GI50 [18]: 18.9 µM (inactive) | GI50 [19]: 23.7 µM (inactive) | GI50 [20]: 21.6 µM (inactive) | GI50 [21]: 15.4 µM (inactive) | GI50 [22]: 25.4 µM (inactive) | GI50 [23]: 22.5 µM (inactive) | GI50 [24]: 31.5 µM (inactive) | GI50 [25]: 18.8 µM (inactive) | GI50 [26]: 36.1 µM (inactive) | GI50 [27]: 19.6 µM (inactive) | GI50 [28]: 21.3 µM (inactive) | GI50 [29]: 27.5 µM (inactive) | GI50 [30]: 17.6 µM (inactive) | GI50 [31]: 19.1 µM (inactive) | GI50 [32]: 29.6 µM (inactive) | GI50 [33]: 39.2 µM (inactive) | GI50 [34]: 24 µM (inactive) | GI50 [35]: 16.6 µM (inactive) | GI50 [36]: 21.7 µM (inactive) | GI50 [37]: 24.5 µM (inactive) | GI50 [38]: 38 µM (inactive) | GI50 [39]: 37.5 µM (inactive) | GI50 [40]: 22.6 µM (inactive) | GI50 [41]: 19.7 µM (inactive) | GI50 [42]: 30.8 µM (inactive) | GI50 [43]: 38.7 µM (inactive) | GI50 [44]: 26.9 µM (inactive) | GI50 [45]: 55.8 µM (inactive) | GI50 [46]: 30.8 µM (inactive) | GI50 [47]: 27.1 µM (inactive) | GI50 [48]: 36.3 µM (inactive) | GI50 [49]: 34.8 µM (inactive) | GI50 [50]: 30.4 µM (inactive) | GI50 [51]: 27.9 µM (inactive) | GI50 [52]: 36 µM (inactive) | GI50 [53]: 12.1 µM (inactive)

NC(CCC(=O)NC(CSC(=O)N(O)c1ccc(Br)cc1)C(=O)NCC(=O)O)C(=O)O (stereo unspecified)
GI50 [2]: > 100 µM (inactive) | GI50 [4]: 25.1 µM (inactive) | GI50 [5]: 70.3 µM (inactive) | GI50 [6]: > 100 µM (inactive) | GI50 [7]: > 100 µM (inactive) | GI50 [8]: 86.5 µM (inactive) | GI50 [9]: > 100 µM (inactive) | GI50 [54]: > 100 µM (inactive) | GI50 [12]: 88.5 µM (inactive) | GI50 [55]: 77.6 µM | GI50 [13]: > 100 µM (inactive) | GI50 [56]: 38.2 µM (inactive) | GI50 [17]: > 100 µM (inactive) | GI50 [18]: 76.2 µM (inactive) | GI50 [19]: 35.2 µM (inactive) | GI50 [21]: 61.5 µM (inactive) | GI50 [22]: 46.9 µM (inactive) | GI50 [23]: 30 µM (inactive) | GI50 [24]: > 100 µM (inactive) | GI50 [26]: > 100 µM (inactive) | GI50 [27]: > 100 µM (inactive) | GI50 [30]: > 100 µM (inactive) | GI50 [34]: > 100 µM (inactive) | GI50 [35]: 66.4 µM (inactive) | GI50 [42]: > 100 µM (inactive) | GI50 [43]: 29.2 µM (inactive) | GI50 [45]: > 100 µM (inactive) | GI50 [47]: > 100 µM (inactive) | GI50 [57]: 81.7 µM (inactive) | GI50 [49]: > 100 µM (inactive) | GI50 [58]: > 100 µM (inactive) | GI50 [52]: 90.4 µM (inactive)

COc1cc(/C=C(\C#N)C(=O)c2ccccc2)ccc1O
GI50 [1]: > 100 µM (inactive) | GI50 [2]: > 100 µM (inactive) | GI50 [3]: > 100 µM (inactive) | GI50 [4]: > 100 µM (inactive) | GI50 [5]: > 100 µM (inactive) | GI50 [6]: 82.8 µM (inactive) | GI50 [7]: > 100 µM (inactive) | GI50 [10]: > 100 µM (inactive) | GI50 [11]: > 100 µM (inactive) | GI50 [12]: > 100 µM (inactive) | GI50 [55]: > 100 µM | GI50 [13]: 46.6 µM (inactive) | GI50 [14]: > 100 µM (inactive) | GI50 [16]: > 100 µM (inactive) | GI50 [17]: > 100 µM (inactive) | GI50 [18]: > 100 µM (inactive) | GI50 [19]: > 100 µM (inactive) | GI50 [20]: > 100 µM (inactive) | GI50 [21]: > 100 µM (inactive) | GI50 [22]: > 100 µM (inactive) | GI50 [23]: > 100 µM (inactive) | GI50 [24]: > 100 µM (inactive) | GI50 [25]: > 100 µM (inactive) | GI50 [26]: > 100 µM (inactive) | GI50 [27]: > 100 µM (inactive) | GI50 [28]: > 100 µM (inactive) | GI50 [29]: > 100 µM (inactive) | GI50 [30]: > 100 µM (inactive) | GI50 [31]: 34.4 µM (inactive) | GI50 [32]: > 100 µM (inactive) | GI50 [33]: > 100 µM (inactive) | GI50 [34]: > 100 µM (inactive) | GI50 [35]: > 100 µM (inactive) | GI50 [37]: > 100 µM (inactive) | GI50 [38]: > 100 µM (inactive) | GI50 [39]: > 100 µM (inactive) | GI50 [40]: > 100 µM (inactive) | GI50 [41]: > 100 µM (inactive) | GI50 [42]: > 100 µM (inactive) | GI50 [43]: > 100 µM (inactive) | GI50 [44]: > 100 µM (inactive) | GI50 [45]: > 100 µM (inactive) | GI50 [47]: > 100 µM (inactive) | GI50 [57]: > 100 µM (inactive) | GI50 [48]: > 100 µM (inactive) | GI50 [49]: > 100 µM (inactive) | GI50 [50]: > 100 µM (inactive) | GI50 [51]: > 100 µM (inactive) | GI50 [58]: > 100 µM (inactive) | GI50 [52]: > 100 µM (inactive) | GI50 [53]: > 100 µM (inactive)
